Where two headings read alike, the source gives them in different places.
Tests used:
H460 cells [1] = assay: Cytotoxicity in H460 cells in the absence or presence of AKR1C3 inhibitor 3021; settings: Homo sapiens, NCI-H460, 2 h, read-out: IC50 (cytotoxicity)
Protocol: Exponentially growing cells were seeded 24 hours before the addition of test compounds. After addition of test compounds, the plates were incubated for the indicated hours at 37° C. in a standard tissue culture incubator. At the end of the experiment, the viable cells were detected using either a CellTiter Glo (CTG) assay kit or AlamarBlue^(28,29). […] For 3021 experiments, cells were pretreated with 3 μM of 3021 for 2 h prior to compound treatment under air. IC50 was calculated as described above.

H460 cells [2] = assay: Comet assay for DNA cross-linking; assay type: cell-based, human
Protocol: After seeding cells for 24 hours, the test articles were added at the indicated concentrations and incubated for 2 hours. Cells were washed twice to remove compound completely. 20 μmol/L of bleomycin was added and incubated for 1 hour under air to induce DNA strand breaks following 2 h cell resting. After washing twice with PBS, comet assay was conducted using a single-cell electrophoresis system from Trevigen (Gaithersburg, MD). The data were analyzed using Comet Assay IV software from Perceptive Instruments (29).
To evaluate whether 3424 cross-linked DNA, a direct biochemical assay for DNA cross-linking, the single-cell electrophoresis-based comet assay was employed using H460 cells. In this assay, the racemic mixture, 2870, was used. […] Bleomycin was used to induce DNA strand breaks which was evident by increased tail moment to 35. 2870-induced DNA cross-linking was tested using three concentrations under identical conditions that were used for bleomycin. Compound 2870-induced concentration-dependent DNA-crosslinking was evident by a decreased tail moment from 36 to 1.6.

recombinant human AKR1C3 = biological target: T1, recombinant human AKR1C3 (Homo sapiens, UniProt P42330); assay: Kinetic analysis of AKR1C3 towards various substrates (NADPH absorbance 340 nm); assay type: biochemical; settings: substrate of AKR1C3, 25° C., triplicate
T1 construct: purchased Abcam (Cambridge, MA)
T1 sequence (P42330 1-323): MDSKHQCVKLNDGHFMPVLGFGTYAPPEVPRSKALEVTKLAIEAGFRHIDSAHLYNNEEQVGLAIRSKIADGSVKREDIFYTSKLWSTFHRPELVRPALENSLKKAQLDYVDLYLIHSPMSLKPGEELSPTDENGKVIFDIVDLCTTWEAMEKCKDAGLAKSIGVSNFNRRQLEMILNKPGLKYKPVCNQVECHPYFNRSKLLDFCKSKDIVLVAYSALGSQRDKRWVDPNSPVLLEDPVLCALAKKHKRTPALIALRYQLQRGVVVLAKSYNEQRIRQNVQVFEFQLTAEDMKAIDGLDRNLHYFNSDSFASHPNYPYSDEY
Protocol: The reaction was incubated at 25° C. and terminated at various time points by adding acetonitrile and methanol (at a ratio of 9 to 1) and subjected for LC-MS/MS analysis. For enzyme kinetic analysis, the activity was determined with a SpectraMax M2^e spectrophotometer (Molecular Devices, LLC, San Jose, CA) by measuring the decrease in absorbance of the NADPH at 340 nm (E=6270 M^−1 cm^−1). After the initiation of the reaction by addition of substrates, the reactions were monitored at 30 s intervals at 25° C. The non-substrate reaction rate was also monitored as background and its slope was used to determine the initial velocity of the reaction. The kinetic data reported were the average of triplicate measurements.

[3] = tested on: H460 subcutaneous xenograft; assay type: in vivo, mice; settings: paclitaxel 15 mg/kg IV BIW×4
Protocol: (§1) In vivo anti-tumor activity of 3424 was evaluated using GFP-expressing cancer cell lines in an orthotopic liver cancer model (HepG2) and a subcutaneous lung cancer model (H460) CDX models at AntiCancer, Inc (Beijing, China). Female athymic nude mice (6 weeks; BALB/c-nu, Beijing HFK Bioscience Co., Ltd., Beijing, China) were used in the studies. Each mouse was implanted with a HepG2-GFP tumor chunk (˜1 mm^3 in diameter) in the right lobe of the liver for tumor development or inoculated subcutaneously with H460-GFP tumor chunk (˜1 mm^3 in diameter). About 3-10 days later, whole mouse body scan was performed using FluorVivo Model-100 fluorescence imager (INDEC Biosystems, Inc., Los Altos, CA). Mice with similar fluorescent areas were selected and randomly grouped. Both cell lines expressed high level of AKR1C3. Prodrug 3424 was dosed intravenously (IV) at 1.25, 2.5 mg/kg or 5 mg/kg Q7D×2 for the HepG2 orthotopic model or at 0.625, 1.25 or 2.5 mg/kg for the H460 xenograft model with a regimen of Q7D×2, 1 week off, then Q7D×2 again. Sorafenib was used as the positive control in the HepG2 model and was dosed orally at 30 mg/kg with a regimen of QD×5×7 cycles. Taxol was used as the positive control in the H460 model and was administered at 15 mg/kg IV with a regimen of BIW×4. During the experiments, mice were observed daily and body weight was measured twice a week. Tumor burden was monitored twice a week either by caliper measurement (H460) or FluorVivo fluorescence imager (H460-GFP and HepG2-GFP).

A498 xenograft = tested on: A498 xenograft
Protocol: (§2) Death and observed clinical signs were recorded on the basis of the numbers of animals within each subset.

[4] = tested on: HepG2 orthotopic xenograft; assay type: in vivo, mice; settings: sorafenib 30 mg/kg orally, QD×5×7 cycles; no statistical significance
Protocol: as §1

SNU-16 xenograft = settings: 5-FU 30 mg/kg IP twice a week
Protocol: as §2

## CC(OP(=O)(N1CC1)N1CC1)c1ccc([N+](=O)[O-])c(Oc2cccc(C(=O)N(C)C)c2)c1 (racemic) [Compound 2870, 1-(3-(3-N,N-dimethylaminocarbonyl)phenoxyl-4-mtrophenyl)-1-ethyl-N,N′-bis(ethylene)phosphoramidate]
H460 cells [1]
  IC50: 4 nM
H460 cells [2]; 2870 at three concentrations, 2 hours, then bleomycin, decreased from 36, concentration-dependent DNA cross-linking
  tail moment: 1.6

## C[C@]12CCC(=O)C[C@@H]1CC[C@@H]1[C@@H]2CC[C@]2(C)[C@@H](O)CC[C@@H]12 [5^α-DHT, dihydrotestosterone, reference compound]
Recombinant human AKR1C3
  Kcat: 0.002 ± 0 s⁻¹
  Km: 10.2 ± 0.62 µM

## C[C@@H](OP(=O)(N1CC1)N1CC1)c1ccc([N+](=O)[O-])c(Oc2cccc(C(=O)N(C)C)c2)c1 [Compound 3423, (R)-1-(3-(3-N,N-dimethylaminocarbonyl)phenoxyl-4-mtrophenyl)-1-ethyl-N,N′-bis(ethylene)phosphoramidate]
H460 cells [1]
  IC50: 5 nM
Recombinant human AKR1C3
  Kcat: 0.012 ± 0.00067 s⁻¹
Recombinant human AKR1C3; read-out: Km
  Km: 12.9 ± 1.71 µM

## CC(=O)O[C@H]1C(=O)[C@@]2(C)[C@H]([C@H](OC(=O)c3ccccc3)[C@]3(O)C[C@H](OC(=O)[C@H](O)[C@@H](NC(=O)c4ccccc4)c4ccccc4)C(C)=C1C3(C)C)[C@]1(OC(C)=O)CO[C@@H]1C[C@@H]2O [paclitaxel, reference compound]
[3]
  TGI: 64%

## CCN(CC)CCNC(=O)c1c(C)[nH]c(/C=C2\C(=O)Nc3ccc(F)cc32)c1C [sunitinib, reference compound]
A498 xenograft; sunitinib 25 mg/kg daily oral gavage
  TGI: 52%

## Nc1ccn([C@@H]2O[C@H](CO)[C@@H](O)C2(F)F)c(=O)n1 [gemcitabine, reference compound]
A498 xenograft; gemcitabine 80 mg/kg weekly IP for 4 doses
  TGI: 19%

## C[C@]12CCC(=O)C=C1CC[C@@H]1[C@@H]2CC[C@]2(C)C(=O)CC[C@@H]12 [4-Androstenedione, 4-androstenedione, reference compound]
Recombinant human AKR1C3
  Kcat: 0.0012 ± 0.00017 s⁻¹
  Km: 1.98 ± 0.43 µM

## CNC(=O)c1cc(Oc2ccc(NC(=O)Nc3ccc(Cl)c(C(F)(F)F)c3)cc2)ccn1 [Sorafenib, reference compound]
[4]
  tumor growth reduction (TGI): 52.1%

## bleomycin [reference compound]
H460 cells [2]; bleomycin used to induce DNA strand breaks (20 μmol/L, 1 hour)
  tail moment: 35

## O=c1[nH]cc(F)c(=O)[nH]1 [Compound 5-FU, 5-fluorouracil, reference compound]
SNU-16 xenograft
  anti-tumor activity: no anti-tumor activity

Source: patent US20240316079A1, “USE OF AKR1C3-ACTIVATED COMPOUND” (OBI PHARMA, INC., priority 2021, published 2024)
